The assay addresses T1, MAGE-A11:PCF11 interaction (GST-MAGE-A11 and FAM-PCF11_4) (Homo sapiens, UniProt P43364).
T1 construct: GST-MAGE-A11 MHD (human MAGE-A11 MHD amino acid 218-429); made in house; host or cells: E. coli BL21(DE3)
T1 sequence (P43364 218-429): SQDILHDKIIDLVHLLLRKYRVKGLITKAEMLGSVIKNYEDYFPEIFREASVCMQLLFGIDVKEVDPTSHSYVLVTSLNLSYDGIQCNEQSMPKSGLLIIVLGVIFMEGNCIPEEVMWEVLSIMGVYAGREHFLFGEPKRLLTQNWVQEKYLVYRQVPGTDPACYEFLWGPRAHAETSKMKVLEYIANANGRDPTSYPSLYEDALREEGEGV
In words: TR-FRET primary / single point screen at 15 µM. It counts as binding. Put shortly: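 TR-FRET 520/490 nm emission ratio was read after 90 min at room temperature. Wells held 5 nM GST-MAGE-A11, 5 nM Tb-anti-GST, 200 nM FAM-PCF11_4 and 15 µM compound in Tris pH 7.5 buffer with MgCl2, BSA and DTT. %Inhibition was scaled to DMSO and minus-MAGE-A11 controls.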
A general note: In TR-FRET formats the signal depends on donor and acceptor labels being close together.

Setting [1] is: single point TR-FRET screening of quinoline compounds against MAGE-A11:PCF11, 15 µM.
Where [2] appears, read: single point TR-FRET screening of 797 quinoline compounds against MAGE-A11:PCF11.

Structures are written as SMILES.

Regarding `COc1ccc2nc3cc(Cl)ccc3c(NCCCNCc3ccc[nH]3)c2c1` [SJ000361084], the “percent inhibition (TR-FRET)” value under setting [1] was determined as 0.9854.
As to `COc1ccc2nc3cc(Cl)ccc3c(NCCCNCc3ccc4c(c3)OCO4)c2c1` [SJ000361085], the “percent inhibition (TR-FRET)” value under setting [2] is on record as -363.307.
Turning to `COc1ccc2nc3cc(Cl)ccc3c(NCCCNCc3ccccc3)c2c1` [SJ000361086], the “percent inhibition (TR-FRET)” value under setting [2] is given as -432.435.
In the case of `COc1ccc2nc3cc(Cl)ccc3c(NCCCNCC3CC3)c2c1` [SJ000361087], under setting [2], the “percent inhibition (TR-FRET)” value was -502.358.
Still for that read-out and setting: in the case of `COc1ccc2nc3cc(Cl)ccc3c(NCCCNCc3cccs3)c2c1` [SJ000361088] it was -453.536; in that of `COc1ccc2nc3cc(Cl)ccc3c(NCCCNCc3ccc(C)o3)c2c1` [SJ000361089], -229.025.
Still for that read-out and setting: as for `COc1ccc2nc3cc(Cl)ccc3c(NCCCNCC3CCCCC3)c2c1` [SJ000361090], the figure is -411.15; as for `COc1ccc2nc3cc(Cl)ccc3c(NCCCNCc3cc(F)ccc3F)c2c1` [SJ000361091], -327.201.
On the same count and under the same terms, in the case of `CCC(CC)CNCCCNc1c2ccc(Cl)cc2nc2ccc(OC)cc12` [SJ000361092] it was -427.368; in that of `CCC(C)CNCCCNc1c2ccc(Cl)cc2nc2ccc(OC)cc12` (stereo not shown) [SJ000361093], -451.494.
Regarding `COc1ccc2nc3cc(Cl)ccc3c(NCCCNCc3sccc3C)c2c1` [SJ000361094], the “percent inhibition (TR-FRET)” value under setting [2] was -321.32.
In the case of `COc1ccc2nc3cc(Cl)ccc3c(NCCCNCc3ccccc3C(F)(F)F)c2c1` [SJ000361095], the “percent inhibition (TR-FRET)” value under setting [2] is -169.468.
For `CCCNCCCNc1c2ccc(Cl)cc2nc2ccc(OC)cc12` [SJ000361096], the “percent inhibition (TR-FRET)” value under setting [2] is recorded as -498.476.
`CCCCCCNCCCNc1c2ccc(Cl)cc2nc2ccc(OC)cc12` [SJ000361097]: the “percent inhibition (TR-FRET)” value under setting [2] is -281.691.
The same measure, in the same setting: in the case of `COc1ccc2nc3cc(Cl)ccc3c(NCCCNCCC(C)SC)c2c1` (stereo not shown) [SJ000361098] it was -514.546.
As for `COc1ccc2nc3cc(Cl)ccc3c(NCCCNCc3c4ccccc4cc4ccccc34)c2c1` [SJ000361099], the “percent inhibition (TR-FRET)” value under setting [1] was -3.728.
Still for that read-out and setting: as for `Clc1ccc2c(NCCCNCC3CC3)ccnc2c1` [SJ000361101], the figure is 11.4651.
Take `Clc1ccc2c(NCCCNCC3CCCCC3)ccnc2c1` [SJ000361102]: the “percent inhibition (TR-FRET)” value under setting [1] is 15.626.
The same measure, in the same setting: as for `CCC(CC)CNCCCNc1ccnc2cc(Cl)ccc12` [SJ000361103], the figure is 16.5535.
Still for that read-out and setting: as for `CCC(C)CNCCCNc1ccnc2cc(Cl)ccc12` (stereo not shown) [SJ000361104], the figure is 9.822; as for `FC(F)(F)c1ccc2c(NCCCNCc3ccc[nH]3)ccnc2c1` [SJ000361105], 41.6887; as for `FC(F)(F)c1ccc2c(NCCCNCC3CC3)ccnc2c1` [SJ000361108], 22.8076.
The same measure, in the same setting: in the case of `Cc1ccc(CNCCCNc2ccnc3cc(C(F)(F)F)ccc23)o1` [SJ000361109] it was 14.4523.
On to `FC(F)(F)c1ccc2c(NCCCNCC3CCCCC3)ccnc2c1` [SJ000361110], for which the “percent inhibition (TR-FRET)” value under setting [1] is reported as 27.1172.
Regarding `CCC(CC)CNCCCNc1ccnc2cc(C(F)(F)F)ccc12` [SJ000361111], under setting [1], the “percent inhibition (TR-FRET)” value is on record as 24.3255.
The same measure, in the same setting: in the case of `CCC(C)CNCCCNc1ccnc2cc(C(F)(F)F)ccc12` (stereo not shown) [SJ000361112] it was 18.4697.
Still for that read-out and setting: in the case of `FC(F)(F)c1ccc2c(NCCCNCc3ccco3)ccnc2c1` [SJ000361113] it was 18.0466.
The same measure, in the same setting: in the case of `CCCNCCCNc1ccnc2cc(Cl)ccc12` [SJ000361119] it was 9.7847.
`CCCCCCNCCCNc1ccnc2cc(Cl)ccc12` [SJ000361120]: the “percent inhibition (TR-FRET)” value under setting [1] was 22.2507.
On the same count and under the same terms, in the case of `CSC(C)CCNCCCNc1ccnc2cc(Cl)ccc12` (stereo not shown) [SJ000361121] it was 13.499.
Regarding `CCCNCCCNc1ccnc2cc(C(F)(F)F)ccc12` [SJ000361123], the “percent inhibition (TR-FRET)” value under setting [1] is on record as 12.8181.
For the compound `CCCCCCNCCCNc1ccnc2cc(C(F)(F)F)ccc12` [SJ000361124], the “percent inhibition (TR-FRET)” value under setting [1] is 31.6112.
Take `CSC(C)CCNCCCNc1ccnc2cc(C(F)(F)F)ccc12` (stereo not shown) [SJ000361125]: the “percent inhibition (TR-FRET)” value under setting [1] is 24.4617.
The same measure, in the same setting: in the case of `Clc1ccc2c(NCCCN(Cc3ccccc3)Cc3ccccc3)ccnc2c1` [SJ000361166] it was 14.7648; in that of `Oc1ccccc1CN(CCCNc1ccnc2cc(Cl)ccc12)Cc1ccccc1` [SJ000361167], 19.2696.
Same read-out and setting: in the case of `FC(F)(F)c1ccccc1CN(CCCNc1ccnc2cc(Cl)ccc12)Cc1ccccc1` [SJ000361168] it was 2.509; in that of `Cc1cc(C)c(CN(CCCNc2ccnc3cc(Cl)ccc23)Cc2ccccc2)c(C)c1` [SJ000361169], 31.1941.
Turning to `Clc1ccc2c(NCCCN(Cc3ccccc3)Cc3ccoc3)ccnc2c1` [SJ000361170], the “percent inhibition (TR-FRET)” value under setting [1] is on record as 12.8437.
`Clc1ccc2c(NCCCN(Cc3ccccc3)CC3CCCCC3)ccnc2c1` [SJ000361171]: the “percent inhibition (TR-FRET)” value under setting [1] was 28.213.
The same measure, in the same setting: as for `CCC(CC)CN(CCCNc1ccnc2cc(Cl)ccc12)Cc1ccccc1` [SJ000361172], the figure is 22.9132; as for `CCCCCN(CCCNc1ccnc2cc(Cl)ccc12)Cc1ccccc1` [SJ000361173], 26.5568; as for `Fc1ccc(CN(CCCNc2ccnc3cc(Cl)ccc23)Cc2ccccc2)cc1F` [SJ000361174], 27.5505.
On the same count and under the same terms, in the case of `Fc1ccccc1CN(CCCNc1ccnc2cc(Cl)ccc12)Cc1ccccc1` [SJ000361175] it was 0.9627; in that of `Fc1cccc(CN(CCCNc2ccnc3cc(Cl)ccc23)Cc2ccccc2)c1` [SJ000361176], 20.3571; in that of `O=[N+]([O-])c1ccccc1CN(CCCNc1ccnc2cc(Cl)ccc12)Cc1ccccc1` [SJ000361177], 16.421.
The same measure, in the same setting: as for `O=[N+]([O-])c1cccc(CN(CCCNc2ccnc3cc(Cl)ccc23)Cc2ccccc2)c1` [SJ000361178], the figure is 17.0172; as for `O=[N+]([O-])c1ccc(CN(CCCNc2ccnc3cc(Cl)ccc23)Cc2ccccc2)cc1` [SJ000361179], 20.1971; as for `O=C(O)c1ccccc1CN(CCCNc1ccnc2cc(Cl)ccc12)Cc1ccccc1` [SJ000361180], 9.598.
Regarding `Clc1ccc2c(NCCCN(Cc3ccccc3)Cc3cccc4ccccc34)ccnc2c1` [SJ000361181], the “percent inhibition (TR-FRET)” value under setting [1] turned out to be 26.2256.
For `Clc1ccc2c(NCCCN(Cc3ccccc3)Cc3ccc4ccccc4c3)ccnc2c1` [SJ000361182], under setting [1], the “percent inhibition (TR-FRET)” value is reported as 22.052.
Regarding `Cc1cccc(CN(CCCNc2ccnc3cc(Cl)ccc23)Cc2ccccc2)c1` [SJ000361183], under setting [1], the “percent inhibition (TR-FRET)” value was determined as 6.02.
As for `Clc1ccc(CN(CCCNc2ccnc3cc(Cl)ccc23)Cc2ccccc2)c(Cl)c1` [SJ000361184], the “percent inhibition (TR-FRET)” value under setting [1] is listed as 25.4969.
Still for that read-out and setting: in the case of `Clc1ccc2c(NCCCN(CCCc3ccccc3)Cc3ccccc3)ccnc2c1` [SJ000361185] it was 6.074.
Still for that read-out and setting: in the case of `CCC(C)CN(CCCNc1ccnc2cc(Cl)ccc12)Cc1ccccc1` (stereo not shown) [SJ000361186] it was 29.5992; in that of `Cc1ccc(C)c(CN(CCCNc2ccnc3cc(Cl)ccc23)Cc2ccccc2)c1` [SJ000361187], 20.217.
Same read-out and setting: in the case of `COc1cccc(CN(CCCNc2ccnc3cc(Cl)ccc23)Cc2ccccc2)c1` [SJ000361188] it was -9.05.
With `CCCCCCN(CCCNc1ccnc2cc(Cl)ccc12)Cc1ccccc1` [SJ000361189], under setting [1], the “percent inhibition (TR-FRET)” value is -40.7502.
Regarding `Clc1ccc2c(NCCCCN(Cc3ccccc3)Cc3ccncc3)ccnc2c1` [SJ000361190], the “percent inhibition (TR-FRET)” value under setting [2] is -9.945.
The same measure, in the same setting: as for `Cc1ccsc1CN(CCCCNc1ccnc2cc(Cl)ccc12)Cc1ccccc1` [SJ000361191], the figure is 23.4378; as for `FC(F)(F)c1ccccc1CN(CCCCNc1ccnc2cc(Cl)ccc12)Cc1ccccc1` [SJ000361192], 27.8155; as for `Cc1cc(C)c(CN(CCCCNc2ccnc3cc(Cl)ccc23)Cc2ccccc2)c(C)c1` [SJ000361193], 26.0268.
Consider `Clc1ccc2c(NCCCCN(Cc3ccccc3)CC3CCCCC3)ccnc2c1` [SJ000361194], for which the “percent inhibition (TR-FRET)” value under setting [2] was determined as 41.9261.
With `CCC(CC)CN(CCCCNc1ccnc2cc(Cl)ccc12)Cc1ccccc1` [SJ000361195], the “percent inhibition (TR-FRET)” value under setting [2] was 25.5382.
On the same count and under the same terms, as for `CCCCCN(CCCCNc1ccnc2cc(Cl)ccc12)Cc1ccccc1` [SJ000361196], the figure is 19.0968; as for `Fc1ccc(CN(CCCCNc2ccnc3cc(Cl)ccc23)Cc2ccccc2)cc1F` [SJ000361197], 26.0931.
The same measure, in the same setting: in the case of `Fc1ccccc1CN(CCCCNc1ccnc2cc(Cl)ccc12)Cc1ccccc1` [SJ000361198] it was 20.7772.
`Fc1cccc(CN(CCCCNc2ccnc3cc(Cl)ccc23)Cc2ccccc2)c1` [SJ000361199]: the “percent inhibition (TR-FRET)” value under setting [2] worked out at 28.3389.
